Columns and labels:
[1] = xn = mol fraction of the nth substance listed; conditions: 101 kPa, Liquid; for viscosity: Capillary tube (Ostwald / Ubbelohde) method; for mass density: Vibrating tube method
[2] = 101 kPa, Liquid; for viscosity: Capillary tube (Ostwald / Ubbelohde) method; for mass density: Vibrating tube method

O [water] + CCN(CC)CCO
[1], x2 = 0
Conditions	mass density [kg/m3]	viscosity [mPa·s]
293.15 K	–	1.004
303.15 K	–	0.813
313.15 K	992.3	0.662
323.15 K	–	0.57
333.15 K	983.3	0.483

NCCO [2-aminoethan-1-ol] + CCN(CC)CCO
[1], x1 = 1
Conditions	mass density [kg/m3]	viscosity [mPa·s]
293.15 K	1016.9	23.79
303.15 K	1009.5	14.83
313.15 K	1001.1	9.89
323.15 K	992.7	6.872
333.15 K	984.3	4.99

O [water] + NCCO
[1], x2 = 0
Conditions	mass density [kg/m3]	viscosity [mPa·s]
293.15 K	–	1.004
303.15 K	–	0.813
313.15 K	992.3	0.662
323.15 K	–	0.57
333.15 K	983.3	0.483

CCN(CC)CCO [(diethylamino)ethanol]
[2]
Conditions	mass density [kg/m3]	viscosity [mPa·s]
293.15 K	891.2	4.848
303.15 K	874.4	3.41
313.15 K	865.4	2.466
323.15 K	856.4	1.855
333.15 K	845.6	1.431

NCCO [2-aminoethan-1-ol]
[2]
Conditions	mass density [kg/m3]	viscosity [mPa·s]
293.15 K	1016.9	23.79
303.15 K	1009.5	14.83
313.15 K	1001.1	9.89
323.15 K	992.7	6.872
333.15 K	984.3	4.99

Reference: the NIST ThermoML archive (doi:10.1016/j.jct.2019.06.032)
